In one assay the test system is Mfn2^−/− MEF cells. In words: Mitochondrial morphology, confocal imaging. To be noted: 3 or 10 μg/ml ST-539, 24 h. The class given is cell-based, mouse. The protocol: (§1) HeLa cells and mouse embryonic fibroblasts (MEFs) were grown in Dulbecco's minimum essential medium (DMEM) with 10% fetal bovine serum (FBS) supplemented with penicillin-streptomycin. HeLa Parkin, PINK1 KO cells, WT and MFN2 KO cells were previously described. Cells stably expressing USP30 were generated using lentiviral vectors of pLVX-Puro-Myc-USP30. The USP30 plasmid was obtained from Addgene. The plasmid was transferred into a lentiviral vector and viral particles were prepared by transiently transfecting HEK293T using standard methods. For the drug treatment experiments, cells were incubated in medium containing a mixture of 5 μM oligomycin and 5 μM antimycin A (A/O; see figures for treatment times). In 18 h treatment, A/O were used in combination with 10 μM quinolyl-valyl-O-methylaspartyl-[−2,6-difluorophenoxy]-methyl ketone (QVD), a broad-spectrum caspase inhibitor. ST51000539 (ST-539) was purchased from Tim Tec, Inc. Other chemicals were from Sigma-Aldrich (St. Louis, MO, USA). For FACS analysis, cells stably expressing mt-Keima were incubated in medium containing a mixture of […] antimycin A for 1.5 h. Prior to A/O treatment, cultures were treated with DMSO or ST-539 at 3 μg/ml. Cells were trypsinized, washed once with PBS buffer and then resuspended into 500 μl of PBS prior to analysis using a BD Fortessa flow cytometer as previously described.

A further assay concerns wild type MEFs. In words: Mitochondrial morphology, confocal imaging. It is filed as cell-based, mouse. As to conditions: ST-539 3 or 10 μg/ml, 24 h. How it is done: as §1
The subject of assay [1] is heart tissue of mt-Keima mice. Nature of the assay: In vivo mitophagy in heart, mt-Keima mice. To be noted: 25 mg/kg/day i.p. for 5 days. Also on record: species or system mouse. How it is done:
Fluorescent samples were examined with a Zeiss LSM 780 confocal microscope (Carl Zeiss MicroImaging). As previously described^2, fluorescence of mt-Keima was imaged in two channels via two sequential excitations (458 nm, green; 561 nm, red) and using a 570- to 695-nm emission range. Confocal experiments for parkin translocation were performed using a HeLa cell line stably expressing YFP-Parkin plated on 35 mm coverglass #1.5 chamber dishes (MatTek). These cells were treated for 2 h with DMSO as vehicle control or with A/O. YFP was imaged with a 514-nm excitation and 520- to 570-emission filters. Representative confocal images were processed using Imaris software by contrast linear stretch only. Calculation of mitophagy based on mt-Keima signal was performed using Zeiss ZEN software as previously described^2. The average of four images from each tissue sample was taken, and the values were normalized to the average value seen in the controls, assigned the value of one.
The mt-Keima mouse. […] The mice were lightly anesthetized with isoflurane and the ejection fraction, fractional shortening, and ventricular chamber dimensions were determined using 2-D-guided M mode images. Ejection fraction, fractional shortening, ventricular chamber dimensions, and left ventricular mass were calculated automatically using the VevoLAB program. […]

The test system of a further assay is NDP52. Nature of the assay: NDP52 level after A/O, immunoblotting. The class given is cell-based. As to conditions: Parkin positive cells, A/O 18 h, ST-539 3 μg/ml; not in WT HeLa or PINK1 KO cells. The protocol:
HeLa cells and mouse embryonic fibroblasts (MEFs) were grown in Dulbecco's minimum essential medium (DMEM) with 10% fetal bovine serum (FBS) supplemented with penicillin-streptomycin. HeLa Parkin, PINK1 KO cells, WT and MFN2 KO cells were previously described. Cells stably expressing USP30 were generated using lentiviral vectors of pLVX-Puro-Myc-USP30. The USP30 plasmid was obtained from Addgene. The plasmid was transferred into a lentiviral vector and viral particles were prepared by transiently transfecting HEK293T using standard methods. For the drug treatment experiments, cells were incubated in medium containing a mixture of 5 μM oligomycin and 5 μM antimycin A (A/O; see figures for treatment times). In 18 h treatment, A/O were used in combination with 10 μM quinolyl-valyl-O-methylaspartyl-[−2,6-difluorophenoxy]-methyl ketone (QVD), a broad-spectrum caspase inhibitor. […]
Genetic suppression of USP30 in Parkin-overexpressing cells promotes the clearance of mitochondria in response to mitochondrial depolarizing agents. […] To investigate if the PINK 1/Parkin pathway is required for ST-539 induced mitophagy, we analyzed TOM20 ubiquitination in wild-type (WT) HeLa cells, which express little to no endogenous Parkin, as well as in WT and PINK1 knockout (KO) HeLa cells stably expressing YFP-tagged Parkin. […]
Background: Immunoblotting shows a protein as a band on a membrane.

Entries after “also recorded” stand apart in the source; their conditions may differ.

Regarding `CC(C)(C)NS(=O)(=O)c1cccc2c(NC(=O)C(Cc3ccccc3)NC(=O)c3ccccc3)cccc12` (stereo not shown) [ST-539], in the assay with Mfn2^−/− MEF cells, the elongation of mitochondria entry is “did not induce the elongation of mitochondria significantly”. Moreover, the mitochondrial morphology result in the assay with wild type MEFs is listed as “failed to change the mitochondrial morphology”. In addition, in assay [1], the “cardiac mitophagy (red mt-Keima signal in heart tissue)” value is “marked induction of the red signal in the heart tissue; also recorded: efficiently induces cardiac mitophagy”. In addition, the “reduction in NDP52 level relative to vehicle treated cells” value in the assay with NDP52 is reported as “more significant reduction”.

These data come from patent US20260373103A1, “COMPOSITIONS AND METHODS FOR PREVENTING CARDIOMYOPATHY” (OHIO STATE INNOVATION FOUNDATION, priority 2022, published 2026).
